The IC50 is the concentration at which inhibition is half-maximal.

The subject of this assay is MGC-803. Description: Antiproliferative activity against human MGC-803 cells assessed as inhibition of cell growth incubated for 24 to 72 hrs by MTT assay. In kind it is functional, cell-based. (In general: Tetrazolium dyes change colour on reduction, which living cells bring about.)
In the case of `C=C1CC[C@@H]2[C@](C)(CO)[C@H](O)CC[C@@]2(C)[C@@H]1/C=C/C1=CC(=C/c2cccc3ccccc23)/NC1=O`, the IC50 is 1.34 µM.

With `C=C1CC[C@@H]2[C@](C)(CO)[C@H](O)CC[C@@]2(C)[C@@H]1/C=C/C1=CC(=C(C)C)NC1=O`, the IC50 is greater than 50 µM.

Consider `C=C1CC[C@@H]2[C@](C)(CO)[C@H](O)CC[C@@]2(C)[C@@H]1/C=C/C(=C/C(=O)Cc1ccc(Cl)cc1)C(=O)N1CCOCC1`, for which the IC50 is greater than 50 µM.

With `C=C1CC[C@@H]2[C@](C)(CO)[C@H](O)CC[C@@]2(C)[C@@H]1/C=C/C1=CC(=C/c2ccc(Br)cc2)/NC1=O`, the IC50 amounted to 5.3 µM.

Take `C=C1CC[C@@H]2[C@](C)(CO)[C@H](O)CC[C@@]2(C)[C@@H]1/C=C/C1=CC(=C/c2cccc(C)c2)/NC1=O`: the IC50 was 4.56 µM.

`C=C1CC[C@@H]2[C@](C)(CO)[C@H](O)CC[C@@]2(C)[C@@H]1/C=C/C1=CC(=C/c2ccc(Cl)cc2Cl)/NC1=O`: the IC50 was found to be 8.52 µM.

Turning to `C=C1CC[C@@H]2[C@](C)(CO)[C@H](O)CC[C@@]2(C)[C@@H]1/C=C/C(=C/C(=O)Cc1ccc(Cl)cc1)C(=O)N(C)C`, the IC50 was greater than 50 µM.

For the molecule `C=C1CC[C@@H]2[C@](C)(CO)[C@H](O)CC[C@@]2(C)[C@@H]1/C=C/C(=C/C(=O)Cc1ccc(Cl)cc1)C(=O)N1CCCCC1`, the half-inhibitory concentration (IC50) is greater than 50 µM.

For the molecule `C=C1CC[C@@H]2[C@](C)(CO)[C@H](O)CC[C@@]2(C)[C@@H]1/C=C/C(=C/C(=O)Cc1ccc(Cl)cc1)C(=O)N1CCN(C)CC1`, the half-inhibitory concentration (IC50) was greater than 50 µM.

On to `C=C1CC[C@@H]2[C@](C)(CO)[C@H](O)CC[C@@]2(C)[C@@H]1/C=C/C(=C/C(=O)Cc1ccc(Cl)cc1)C(=O)N1CCCC1`, for which the IC50 was greater than 50 µM.

`C=C1CC[C@@H]2[C@](C)(CO)[C@H](O)CC[C@@]2(C)[C@@H]1/C=C/C1=CC(=C/c2ccccc2C)/NC1=O`: the IC50 was determined as 1.76 µM.

On to `C=C1CC[C@@H]2[C@](C)(CO)[C@H](O)CC[C@@]2(C)[C@@H]1C/C=C1/C(=O)OC[C@H]1O` [ANDROGRAPHOLIDE], for which the IC50 turned out to be 31.8 µM.

As for `C=C1CC[C@@H]2[C@](C)(CO)[C@H](O)CC[C@@]2(C)[C@@H]1/C=C/C1=CC(=C/c2ccccc2)/NC1=O`, the IC50 stood at 9.56 µM.

For the molecule `C=C1CC[C@@H]2[C@](C)(CO)[C@H](O)CC[C@@]2(C)[C@@H]1/C=C/C1=CC(=C/c2ccc(F)cc2)/NC1=O`, the IC50 was greater than 50 µM.

Take `C=C1CC[C@@H]2[C@](C)(CO)[C@H](O)CC[C@@]2(C)[C@@H]1/C=C/C1=CC(=C/c2ccc3ccccc3c2)/NC1=O`: the IC50 turned out to be 2.43 µM.

For `C=C1CC[C@@H]2[C@](C)(CO)[C@H](O)CC[C@@]2(C)[C@@H]1/C=C/C1=CC(=C/c2cccc(C)c2C)/NC1=O`, the IC50 is 14.1 µM.

Take `C=C1CC[C@@H]2[C@](C)(CO)[C@H](O)CC[C@@]2(C)[C@@H]1/C=C/C1=CC(=C/c2ccccc2Cl)/NC1=O`: the IC50 is 1.6 µM.

As for `C=C1CC[C@@H]2[C@](C)(CO)[C@H](O)CC[C@@]2(C)[C@@H]1/C=C/C(=C/C(=O)Cc1ccc(Cl)cc1)C(=O)N1CCN(CC)CC1`, the IC50 is greater than 50 µM.

For `C=C1CC[C@@H]2[C@](C)(CO)[C@H](O)CC[C@@]2(C)[C@@H]1/C=C/C1=CC(=C/c2ccc(N(C)C)cc2)/NC1=O`, the concentration for half-maximal inhibition (IC50) was found to be 18.1 µM.

Turning to `C=C1CC[C@@H]2[C@](C)(CO)[C@H](O)CC[C@@]2(C)[C@@H]1/C=C/C(=C/C(=O)Cc1ccc(Cl)cc1)C(=O)N1CCNCC1`, the IC50 came out at 37.8 µM.

For `C=C1CC[C@@H]2[C@](C)(CO)[C@H](O)CC[C@@]2(C)[C@@H]1/C=C/C1=CC(=C/c2cccnc2)/NC1=O`, the IC50 was determined as 12.3 µM.

As to `C=C1CC[C@@H]2[C@](C)(CO)[C@H](O)CC[C@@]2(C)[C@@H]1/C=C/C1=CC(=C/C2CCCCC2)/NC1=O`, the IC50 is 15.7 µM.

Turning to `C=C1CC[C@@H]2[C@](C)(CO)[C@H](O)CC[C@@]2(C)[C@@H]1/C=C/C1=CC(=C/c2ccc(C(C)(C)C)cc2)/NC1=O`, the IC50 is 19.5 µM.

Turning to `C=C1CC[C@@H]2[C@](C)(CO)[C@H](O)CC[C@@]2(C)[C@@H]1/C=C/C1=CC(=C/c2cccc(Cl)c2)/NC1=O`, the half-maximal inhibitory concentration (IC50) was greater than 50 µM.

Consider `C=C1CC[C@@H]2[C@](C)(CO)[C@H](O)CC[C@@]2(C)[C@@H]1/C=C/C1=CC(=C\c2ccccc2)/NC1=O`, for which the IC50 was 17.6 µM.

With `C=C1CC[C@@H]2[C@](C)(CO)[C@H](O)CC[C@@]2(C)[C@@H]1/C=C/C1=CC(=C/c2ccc(Cl)cc2)/NC1=O`, the concentration for half-maximal inhibition (IC50) was found to be 6.05 µM.

For `C=C1CC[C@@H]2[C@](C)(CO)[C@H](O)CC[C@@]2(C)[C@@H]1/C=C/C1=CC(=C\c2ccc(C)cc2)/NC1=O`, the IC50 came to 14.7 µM.

In the case of `C=C1CC[C@@H]2[C@](C)(CO)[C@H](O)CC[C@@]2(C)[C@@H]1/C=C/C1=CC(=C\c2ccc(Cl)cc2)/NC1=O`, the half-inhibitory concentration (IC50) amounted to 19.2 µM.

For the molecule `C=C1CC[C@@H]2[C@](C)(CO)[C@H](O)CC[C@@]2(C)[C@@H]1/C=C/C1=CC(=C/c2ccc(F)c(F)c2)/NC1=O`, the IC50 is greater than 50 µM.

For `C=C1CC[C@@H]2[C@](C)(CO)[C@H](O)CC[C@@]2(C)[C@@H]1/C=C/C(=C/C(=O)Cc1ccc(Cl)cc1)C(=O)N1CCN(CCO)CC1`, the IC50 is greater than 50 µM.

For the molecule `C=C1CC[C@@H]2[C@](C)(CO)[C@H](O)CC[C@@]2(C)[C@@H]1/C=C/C1=CC(=C/c2cc(OC)c(OC)c(OC)c2)/NC1=O`, the IC50 was determined as 7.27 µM.

`C=C1CC[C@@H]2[C@](C)(CO)[C@H](O)CC[C@@]2(C)[C@@H]1/C=C/C(=C/C(=O)Cc1ccc(Cl)cc1)C(=O)N1CCN(C(=O)OC(C)(C)C)CC1`: the IC50 amounted to 15.8 µM.

Turning to `C=C1CC[C@@H]2[C@](C)(CO)[C@H](O)CC[C@@]2(C)[C@@H]1/C=C/C1=CC(=C/c2ccc([N+](=O)[O-])c(Cl)c2)/NC1=O`, the IC50 is greater than 50 µM.

As for `C=C1CC[C@@H]2[C@](C)(CO)[C@H](O)CC[C@@]2(C)[C@@H]1/C=C/C1=CC(=C2CCCCC2)NC1=O`, the concentration for half-maximal inhibition (IC50) was greater than 50 µM.

(Values after ChEMBL document CHEMBL6153084, “The development of α, β-unsaturated lactam-based andrographolide derivatives as anti-gastric cancer agents with the ability of inhibiting the ERK/c-Fos/Jun pathway” (Eur J Med Chem, 2025).)
